Tests used:
C4-2 tumor-bearing mice = assay: In vivo metabolite analysis by radio-HPLC of tissue extracts; set-up: species or system mouse; details: extracts from kidney, blood, liver and tumor of C4-2 tumor-bearing mice, 10 MBq, 0.2 nmol i.v.
Protocol: The metabolization of the radiolabeled tracers in vivo was studied by radio-HPLC analysis. Male nude C4-2 tumor-bearing mice (n = 3) were injected with ^177Lu-CA028 or ^177Lu-PSMA-617 (10 MBq, 0.2 nmol in approximately 100 µL of 0.9% saline) via the tail vein. Ten min post injection, blood, the liver, and the kidneys were dissected. The tissues were rinsed with ice-cold saline, blotted dry, treated with 2 mL of 0.1 M NH4OAc/EtOH (35:65), and homogenized with an Ultra-Turrax T8 (IKA Labortechnik). The samples were then centrifuged for 10 min at 12,000 × g and 4°C. For HPLC measurements, an aliquot of the supernatants was prepared by precipitation of the proteins with ACN as described above for serum stability testing. The samples were analyzed by radio-HPLC (0–100% ACN in 5 min, 2 mL/min, Monolith column, Merck). The fractions were collected every 10 s over the whole course of the chromatographic run. Subsequently, the activity of the samples was measured in a gamma-counter to reconstruct a chromatogram.

[1] = Serum stability (radio-HPLC and radio-ITLC); assay type: in vitro ADME; details: ^177Lu-labeled; for release of ^177Lu in human serum: radio-ITLC
Protocol: After radiolabeling of the compounds, serum stability was examined by HPLC and ITLC (instant thin-layer chromatography). 50 µL (20 MBq) of the ^177Lu-labeled ligands was added to 200 µL human serum (Sigma-Aldrich) and incubated at 37°C. At different time points (0, 2, 24, 48, and 72 h) 0.5 µL was applied onto iTLC-SG-glass microfiber chromatography paper strips (5 × 0.5 cm; Agilent Technologies) at a distance of 1 cm from the bottom. The strip was placed upright into a vial containing 120 µL of sodium citrate buffer (0.5 M, pH = 5.0). The buffer front was allowed to rise to the top. Subsequently, each strip was cut in eight equally sized pieces that were subsequently measured in a gamma-counter. For HPLC analysis, an equal volume of ACN was added to the samples; under these conditions, the serum proteins precipitated. The samples were centrifuged for 10 min at 12,000 × g. Following the separation of the pellet and the supernatant, their relative activity (%) was determined. An aliquot of the supernatant was analyzed by radio-HPLC (0–100% ACN in 5 min, Monolith column, Merck), with a flow rate of 2 mL/min.

[2] = Determination of plasma half-life in athymic nude mice; assay type: in vivo, mouse; details: athymic nude mice (n = 3), i.v. 4–6 MBq, biexponential fit, weighted overall half-life
Protocol: The radioligands ^68Ga-CA027 and ^68Ga-CA028 (4–6 MBq) were injected into athymic nude mice (n = 3) via the lateral tail vein. Blood (25–50 μL) was collected 2, 5, 15, 30, 45, 60, 90, and 120 min post injection via either the tail or saphenous vein, and the activity of the blood samples was determined in a γ-counter. Both procedures furnished consistent and reproducible results. The percentage of the injected dose per gram of tissue (%ID/g) was calculated, and the resulting values were plotted as a function of time. A biexponential decay curve was used as a fit function, accounting for a short blood half-life (a-phase) during the initial phase directly after injection and a longer blood half-life during the terminal phase (b-phase). The data analysis program Prism 7™ was used to determine both half-lives, t1/2-a and t1/2-b, as well as their relative contribution (in %) to the overall half-life (t1/2). Subsequently, both half-lives were weighed according to their relative contribution to the overall blood half-life t1/2. At the time of tracer injection (t = 0), it was assumed that %ID/g = 50. The injected dose at t = 0 equals 100%, divided by the total mass of blood (approximately 2 g in the case of 6‒8 weeks old mice) gives %ID/g t=0 = 50.

PSMA = target: T1, PSMA (Homo sapiens, UniProt Q04609); assay: Competitive cell binding assay on C4-2 cells vs ^68Ga-PSMA-10; details: non-labeled compounds, radioligand ^68Ga-PSMA-10 0.75 nM, 37°C 45 min, mean ± SD (n = 3)
T1 construct: host or cells: C4-2 cells (subline of LNCaP)
T1 sequence (Q04609 whole entry): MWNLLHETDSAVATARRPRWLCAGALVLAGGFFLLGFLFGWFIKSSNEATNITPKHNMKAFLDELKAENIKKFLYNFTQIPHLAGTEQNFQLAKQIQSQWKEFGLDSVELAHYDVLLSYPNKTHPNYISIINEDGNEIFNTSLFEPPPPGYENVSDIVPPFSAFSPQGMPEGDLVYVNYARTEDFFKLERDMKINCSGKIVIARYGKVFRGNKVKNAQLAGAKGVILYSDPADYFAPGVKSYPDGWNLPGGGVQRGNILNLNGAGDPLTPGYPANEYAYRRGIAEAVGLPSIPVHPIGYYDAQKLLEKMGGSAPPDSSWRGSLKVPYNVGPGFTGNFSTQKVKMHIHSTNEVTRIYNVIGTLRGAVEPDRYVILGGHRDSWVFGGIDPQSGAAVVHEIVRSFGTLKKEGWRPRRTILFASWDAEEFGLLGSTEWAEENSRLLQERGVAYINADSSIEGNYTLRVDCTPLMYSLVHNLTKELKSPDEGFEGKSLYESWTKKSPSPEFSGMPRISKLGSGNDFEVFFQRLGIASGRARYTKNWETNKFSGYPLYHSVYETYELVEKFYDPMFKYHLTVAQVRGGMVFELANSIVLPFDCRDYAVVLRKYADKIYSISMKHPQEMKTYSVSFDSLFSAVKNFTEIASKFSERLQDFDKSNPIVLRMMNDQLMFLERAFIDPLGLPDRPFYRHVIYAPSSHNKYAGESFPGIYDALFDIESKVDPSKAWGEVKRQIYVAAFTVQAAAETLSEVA
Protocol: The competition binding assay was performed using the cell line C4-2 (ATCC® CRL-3314™; American Type Culture Collection). This is a subline of the PSMA-positive cell line LNCaP. The cells were cultivated in RPMI 1640 medium (PAN-Biotech), supplemented with 10% fetal bovine serum and 2 mM L-glutamine (PAN-Biotech) at 37°C and 5% CO2 in a humidified atmosphere.
A 96-well MultiScreenHTS-DV filter plate (Merck Millipore) was incubated at room temperature with 100 µL of a 1% bovine serum albumin (BSA) solution in PBS (phosphate-buffered saline) per well for 30 min. After removal of PBS/BSA solution, 1 × 10^5 C4-2 cells in 50 µL of Opti-MEM medium (Gibco, Life Technologies) were seeded into each well. […] All non-labeled compounds were dissolved in Opti-MEM and added as competing ligands at several concentrations: 0, 0.5, 1, 2.5, 5, 10, 25, 50, 100, 500, 1,000, and 5,000 nM. After incubation at 37°C for 45 min, the cells were washed twice with PBS at 4°C. The radioactivity in the supernatant and that accumulated by the cells was determined with a γ-counter (Packard Cobra Auto-gamma). Using Graph Pad Prism 5.01 software, a nonlinear regression algorithm was calculated to obtain the 50% inhibitory concentration (IC50). These experiments were performed in quadruplicate.

C4-2 cells = assay: Internalization efficiency / specific cell uptake in C4-2 cells; assay type: cell-based, human; details: for Specific cell surface / Specific lysate (internalization): ^68Ga-labeled compounds 30 nM, 45 min, 37°C, specificity by 2-PMPA 500 μM, mean ± SD (n = 3)
Protocol: The specific internalization ratio was determinated in 24-well plates. The plates were previously coated with 0.1% poly-L-lysine in PBS for 20 min and washed with PBS once. C4-2 cells (10^5 cells per analysis) were added to each well and equilibrated overnight. The cells were incubated for 45 min with 250 µL of a 30 nM solution of the ^68Ga-labeled compounds either in a water bath at 37°C or on ice. The PSMA-receptor-blocking agent 2-(phosphonomethyl)pentanedioic acid (2-PMPA; 500 μM; Axxora) was used to verify the specificity of the cellular uptake of the novel compounds. The cells were washed thrice (using 1 ml of ice-cold PBS), followed by an incubation with 0.5 ml of a glycine solution (50 mM in HCl at a pH of 2.8) for 5 min, washed once with 1 ml of ice-cold PBS, and finally lysed with 0.5 ml of 0.3 M NaOH. The lysate was collected, and the radioactivity was measured in a gamma-counter. Triplicate measurements were performed for all experiments.

| Structure (SMILES) | Ki (PSMA) [nM] | release of ^177Lu in human serum ([1]; 37°C) | Specific cell surface (C4-2 cells) [%IA/10^6cells] | Specific lysate (internalization) (C4-2 cells) [%IA/10^6 cells] | also measured |
| --- | --- | --- | --- | --- | --- |
| O=C([O-])CN1CCN(CC(=O)[O-])CCN(CC(=O)NCC2CCC(C(=O)N[C@@H](Cc3ccc4ccccc4c3)C(=O)NCCCC[C@H](NC(=O)N[C@@H](CCC(=O)O)C(=O)O)C(=O)O)CC2)CCN(CC(=O)[O-])CC1.[177Lu+3] (stereo partly drawn) [^177Lu-PSMA-617, reference compound] |  | no release |  |  | metabolization in vivo (radio-HPLC of extracts) (C4-2 tumor-bearing mice): activity elutes at the retention time of the intact tracer |
| O=C([O-])CN1CCN(CC(=O)[O-])CCN(Cc2ccc(C(=O)NCCCCC(NC(=O)NC(CCC(=O)O)C(=O)O)C(=O)O)cc2)CCN(CC(=O)[O-])CC1.[68Ga+3] (stereo not drawn) [^68Ga-CA027] |  |  |  |  | plasma half-life t1/2 [2]: 2.7 min |
| O=C([O-])CN1CCN(CC(=O)[O-])CCN(C(CCC(=O)NCc2ccc(NC(=S)NCC3CCC(C(=O)NC(Cc4ccc5ccccc5c4)C(=O)NCCCCC(NC(=O)NC(CCC(=O)O)C(=O)O)C(=O)O)CC3)cc2)C(=O)O)CCN(CC(=O)[O-])CC1.[177Lu+3] (stereo not drawn) [^177Lu-CA029] |  | no release |  |  |  |
| O=C([O-])CN1CCN(CC(=O)[O-])CCN(CC(=O)O)C(Cc2ccc(NC(=S)NCC3CCC(C(=O)NC(Cc4ccc5ccccc5c4)C(=O)NCCCCC(NC(=O)NC(CCC(=O)O)C(=O)O)C(=O)O)CC3)cc2)CN(CC(=O)[O-])CC1.[177Lu+3] (stereo not drawn) [^177Lu-CA030] |  | no release |  |  | stability in human serum ([1]; over 72 h): stable |
| O=C([O-])CN1CCN(CC(=O)[O-])CCN(Cc2ccc(C(=O)NCC3CCC(C(=O)NC(Cc4ccc5ccccc5c4)C(=O)NCCCCC(NC(=O)NC(CCC(=O)O)C(=O)O)C(=O)O)CC3)cc2)CCN(CC(=O)[O-])CC1.[177Lu+3] (stereo not drawn) [^177Lu-CA028] |  |  |  |  | metabolization in vivo (radio-HPLC of extracts) (C4-2 tumor-bearing mice): activity elutes at the retention time of the intact tracer; free activity in human serum ([1]; 37°C, 'at this time point'): 40% |

Second part, led by results:

| Ki (PSMA) [nM] | Structure (SMILES) | release of ^177Lu in human serum ([1]; 37°C) | Specific cell surface (C4-2 cells) [%IA/10^6cells] | Specific lysate (internalization) (C4-2 cells) [%IA/10^6 cells] | also measured |
| --- | --- | --- | --- | --- | --- |
| 33.8 ± 2.13 | O=C(O)CCC(NC(=O)NC(CCCCNC(=O)c1ccc(CN2CCN(CC(=O)O)CCN(CC(=O)O)CCN(CC(=O)O)CC2)cc1)C(=O)O)C(=O)O (stereo not drawn) [CA027] |  | 2.18 ± 0.50 | 1.70 ± 0.24 |  |
| 11 ± 4.87 | O=C(O)CCC(NC(=O)NC(CCCCNC(=O)C(Cc1ccc2ccccc2c1)NC(=O)C1CCC(CNC(=S)Nc2ccc(CNC(=O)CCC(C(=O)O)N3CCN(CC(=O)O)CCN(CC(=O)O)CCN(CC(=O)O)CC3)cc2)CC1)C(=O)O)C(=O)O (stereo not drawn) [CA029] |  | 46.83 ± 3.07 | 44.26 ± 3.96 |  |
| 15.2 ± 6.11 | O=C(O)CCC(NC(=O)NC(CCCCNC(=O)C(Cc1ccc2ccccc2c1)NC(=O)C1CCC(CNC(=O)c2ccc(CN3CCN(CC(=O)O)CCN(CC(=O)O)CCN(CC(=O)O)CC3)cc2)CC1)C(=O)O)C(=O)O (stereo not drawn) [CA028] |  | 94.12 ± 2.70 | 41.22 ± 2.72 |  |
| 4.79 ± 1.31 | O=C(O)CCC(NC(=O)NC(CCCCNC(=O)C(Cc1ccc2ccccc2c1)NC(=O)C1CCC(CNC(=S)Nc2ccc(CC3CN(CC(=O)O)CCN(CC(=O)O)CCN(CC(=O)O)CCN3CC(=O)O)cc2)CC1)C(=O)O)C(=O)O (stereo not drawn) [CA030] |  | 43.46 ± 1.50 | 53.78 ± 5.45 | specific internalization in C4-2 cells (C4-2 cells; Table 2): 53.78 % ID/10^6 cells |

— paper PMC9396645 (Frontiers in Chemistry, 2022)
